Tested on: human LDL
Test: Inhibition of LDL lipid peroxidation (cupric sulfate-induced, thiobarbituric acid assay)
Type: biochemical
Settings: 250 μg human LDL, test compound 30 min at 42° C., cupric sulfate 12.5 μM, 37° C., 2.5 hours, read-out: ID50 (concentration of test compound required to inhibit 50% of LDL lipid peroxidation)
Protocol: The degree of inhibition of LDL lipid peroxidation was determined by the method of Yagi et al. [Vitamins 39, 105 (1968)].
A 0.5 mL solution containing 250 micrograms (μg) of human LDL was incubated with the test compound, in amounts varying from 0 to 30 μg, for 30 minutes at 42° C. To this mixture was added 1 mL of a cupric sulfate solution (final concentration 12.5 μM) and the mixture was incubated at 37° C. for 2.5 hours. The amount of peroxidation of LDL lipid was determined by the thiobarbituric acid assay. The concentration of test compound required to inhibit 50% of LDL lipid peroxidation (ID50) was determined.

| Compound | IC50 [nM] |
| --- | --- |
| CC(C)(C)c1cc(SC[Si](C)(C)C)cc(C(C)(C)C)c1O [Compound A] | 2800 |
| CC(C)(C)c1cc(SC[Si](C)(C)c2ccccc2)cc(C(C)(C)C)c1O [Compound B] | 3000 |
